# What was measured:
# [1] = test system: isolated rat bladder strips; assay: Inhibition of contractions in isolated rat bladder strips; design: species or system rat (Sprague-Dawley); conditions: for IC50: 0.5 h, additional 15 mM KCl, 30 min challenge
# Source text: In addition, smooth muscle relaxing activity of the compounds of this invention was established in accordance with standard pharmaceutically accepted test procedures in representative compounds as follows:
# Sprague-Dawley rats (150-200 g) are rendered unconscious by CO2 asphyxiation and then euthanized by cervical dislocation. The bladder is removed into warm (37 deg.C.) physiological salt solution (PSS) of the following composition (mM): NaCl, 118.4; KCl, 4.7; CaCl2, 2.5; […]; NaHCO3, 24.9; KH2 PO4, 1.2; glucose, 11.1; EDTA, 0.023; gassed with […]; pH 7.4. The bladder is opened and then cut into strips 1-2 mm in width and 7-10 mm in length. The strips are subsequently suspended in a 10 ml tissue bath under an initial resting tension of 1.5 g. The strips are held in place by two surgical clips one of which is attached to fixed hook while the other is attached to an isometric force transducer. […] The carbachol is then washed out and the tissue allowed to relax to its resting level of activity. Following 1 further 30 min period of recovery an additional 15 mM KCl are introduced into the tissue bath. This increase in KCl concentration results in a large increase in the amplitude of spontaneous contractions (and initiation of contractions in previously quiescent strips) superimposed upon a small increase in basal tone. Following stabilization of this enhanced level of contractile activity, incremental increases in the concentration of test compound or vehicle are introduced into the tissue bath. Contractile activity is measured for each compound or vehicle concentration during the last min of a 30 min challenge.
# Isometric force developed by the bladder strips is measured using a […] to elicit 50% inhibition of pre-drug contractile activity (IC50 concentration) is calculated from this concentration-response curve. The maximum percentage inhibition of contractile activity evoked by a test compound is also recorded for concentrations of test compound<or equal to 30 uM.
# [2] = test system: spontaneously hypertensive rats (SHR); assay: Blood pressure lowering and heart rate in conscious spontaneously hypertensive rats, oral; type: in vivo, rat (male Okamoto-Aoki SHR)
# Source text: The blood pressure lowering activity of the compounds of this invention was established in accordance with standard pharmaceutically accepted test procedures in representative compounds as follows:
# Male Okamoto-Aoki spontaneously hypertensive rats (SHR) ranging in weight from 250-400 g were anesthetized with halothane. Their left femoral arteries and veins were cannulated with polyethylene tubing of the appropriate size (i.d. 0.023", o.d. 0.038"). Each animal was placed in a Bollman cage, and the tail, along with two cannulas, was extended through a hole in one end of the cage. The tail was taped securely to a firm rubber board to prevent the rat from turning in its cage to dislodge the cannulas. The femoral arterial cannula was connected to a Statham pressure transducer which in turn was attached to a polygraph for recording arterial pressure and pulse rate. The pulse rate was considered to be the heart rate.
# After the blood pressure has stabilized (usually 2 hours after cessation of the anesthesia), standard agonists were injected by the i.v. route. The doses administered were: isoproterenol 0.5 μg/kg, adrenaline 2.0 μg/kg, tyramine 200 μg/kg and angiotensin-I 0.25 μg/kg. The agonists were given in random order except that tyramine was never preceded by isoproterenol as the response to tyramine seemed to be blunted after a prior injection of isoproterenol. Enough time was allowed for the BP to return to preinjection levels before the test compound was administered by gastric lavage. The time of drug administration was designated as time zero. Heart rate and blood pressure were recorded at 5,10,15,30,45 and 60 minutes and hourly thereafter for a period of 4 hours after drug administration. At 1 and 2 hours post-drug the agonists were again injected at the same concentration and in the same order as during the control period.
# For each dose, the maximum fall in blood pressure was given in mm Hg and also expressed as a percentage decrease compared to pretreatment control values. Linear regression on the maximum decrease in mean arterial blood pressure at each dose was used to calculate the ED30 (the dose which would lower mean arterial pressure by 30%). A decrease in mean arterial blood pressure of 30% reduces the blood pressure from the hypertensive to the normotensive range.
compound,measurement,setting,value
"CC1(C)Oc2ccc(OC(F)(F)F)cc2[C@@H](n2[nH]c3ccccc3c2=O)[C@@H]1O [Example 1, (-)-2-[(3S,4R)-3-Hydroxy-2,2-dimethyl-6-trifluoromethoxy-chroman-4-yl]-1,2-dihydro-indazol-3-one]",IC50,[1],44 nM
same,inhibition at 0.3 µM,"[1]; at 0.3 μM, read-out: Inhibition of Force (%) at (x) μM",100%
same,Max Δ BP (mean arterial blood pressure),"[2]; 0.1 mg/kg p.o., 15 m",-41 mm Hg
same,"Max Δ BP, %","[2]; 0.1 mg/kg p.o., 15 m",-21 ± 3%
same,Max Δ HR (heart rate),"[2]; 0.1 mg/kg p.o., 15 m",+58 beats/min
same,"Max Δ HR, %","[2]; 0.1 mg/kg p.o., 15 m",+16 ± 6%
same,Δ BP (mean arterial blood pressure),"[2]; 0.1 mg/kg p.o., 2 h",-13 mm Hg
same,"Δ BP, %","[2]; 0.1 mg/kg p.o., 2 h",-7 ± 2%
same,Δ HR (heart rate),"[2]; 0.1 mg/kg p.o., 2 h",-29 beats/min
same,"Δ HR, %","[2]; 0.1 mg/kg p.o., 2 h",-7 ± 3%
same,Max Δ BP (mean arterial blood pressure),"[2]; 0.3 mg/kg p.o., 30 m",-102 mm Hg
same,"Max Δ BP, %","[2]; 0.3 mg/kg p.o., 30 m",-55 ± 2%
same,Max Δ HR (heart rate),"[2]; 0.3 mg/kg p.o., 30 m",+90 beats/min
same,"Max Δ HR, %","[2]; 0.3 mg/kg p.o., 30 m",+25 ± 6%
same,Δ BP (mean arterial blood pressure),"[2]; 0.3 mg/kg p.o., 4 h",-22 mm Hg
same,"Δ BP, %","[2]; 0.3 mg/kg p.o., 4 h",-12 ± 4%
same,Δ HR (heart rate),"[2]; 0.3 mg/kg p.o., 4 h",+36 beats/min
same,"Δ HR, %","[2]; 0.3 mg/kg p.o., 4 h",+10 ± 4%
same,Max Δ BP (mean arterial blood pressure),"[2]; 1.0 mg/kg p.o., 45 m",-112 mm Hg
same,"Max Δ BP, %","[2]; 1.0 mg/kg p.o., 45 m",-59 ± 4%
same,Max Δ HR (heart rate),"[2]; 1.0 mg/kg p.o., 45 m",+41 beats/min
same,"Max Δ HR, %","[2]; 1.0 mg/kg p.o., 45 m",+11 ± 12%
same,Δ BP (mean arterial blood pressure),"[2]; 1.0 mg/kg p.o., 4 h",-92 mm Hg
same,"Δ BP, %","[2]; 1.0 mg/kg p.o., 4 h",-47 ± 15%
same,Δ HR (heart rate),"[2]; 1.0 mg/kg p.o., 4 h",-31 beats/min
same,"Δ HR, %","[2]; 1.0 mg/kg p.o., 4 h",-9 ± 13%
"Cn1c2ccccc2c(=O)n1[C@@H]1c2cc(OC(F)(F)F)ccc2OC(C)(C)[C@H]1O [Example 2, (-)-2-[(3S,4R)-3-Hydroxy-2,2-dimethyl-6-trifluoromethoxy-chroman-4-yl]-1-methyl-1,2-dihydro-indazol-3-one]",IC50,[1],9000 nM
same,inhibition at 10 µM,"[1]; at 10 μM, read-out: Inhibition of Force (%) at (x) μM",58%
same,Max Δ BP (mean arterial blood pressure),"[2]; 1.0 mg/kg p.o., 45 m",-22 mm Hg
same,"Max Δ BP, %","[2]; 1.0 mg/kg p.o., 45 m",-13 ± 2%
same,Max Δ HR (heart rate),"[2]; 1.0 mg/kg p.o., 45 m",+17 beats/min
same,"Max Δ HR, %","[2]; 1.0 mg/kg p.o., 45 m",+4 ± 1%
"CC1(C)Oc2ccc(OC(F)(F)F)cc2[C@H](n2[nH]c3ccccc3c2=O)[C@H]1O [Example 7, (+)-2-[(3R,4S)-3-Hydroxy-2,2-dimethyl-6-trifluoromethoxychroman-4-yl]-1,2-dihydro-indazol-3-one]",Max Δ BP (mean arterial blood pressure),"[2]; 0.1 mg/kg p.o., 5 m",-12 mm Hg
same,"Max Δ BP, %","[2]; 0.1 mg/kg p.o., 5 m",-7 ± 1%
same,Max Δ HR (heart rate),"[2]; 0.1 mg/kg p.o., 5 m",+39 beats/min
same,"Max Δ HR, %","[2]; 0.1 mg/kg p.o., 5 m",+10 ± 3%
same,Max Δ BP (mean arterial blood pressure),"[2]; 1.0 mg/kg p.o., 30 m",-96 mm Hg
same,"Max Δ BP, %","[2]; 1.0 mg/kg p.o., 30 m",-51 ± 1%
same,Max Δ HR (heart rate),"[2]; 1.0 mg/kg p.o., 30 m",+114 beats/min
same,"Max Δ HR, %","[2]; 1.0 mg/kg p.o., 30 m",+31 ± 7%
same,Δ BP (mean arterial blood pressure),"[2]; 1.0 mg/kg p.o., 4 h",-20 mm Hg
same,"Δ BP, %","[2]; 1.0 mg/kg p.o., 4 h",-11 ± 2%
same,Δ HR (heart rate),"[2]; 1.0 mg/kg p.o., 4 h",+38 beats/min
same,"Δ HR, %","[2]; 1.0 mg/kg p.o., 4 h",+10 ± 4%
"Cc1ccc2[nH]n([C@@H]3c4cc(OC(F)(F)F)ccc4OC(C)(C)[C@H]3O)c(=O)c2c1 [Example 8, (-)-2-[(3S,4R)-3-Hydroxy-2,2-dimethyl-6-trifluoromethoxy-chroman-4-yl]-5-methyl-1,2-dihydro-indazol-3-one]",IC50,[1],11 nM

# — US5225566A, “Indazolanonyl derivative of benzopyran” (American Home Products Corporation, priority 1992, dated 1993)
